From patent US20250381176A1, “SCD1 INHIBITORS FOR TREATING LIVER DISEASE” (MODULATION THERAPEUTICS, INC., priority 2022, published 2025)
Entries after “also recorded” stand apart in the source; their conditions may differ.

Columns and labels:
[1] = test system: SCD1 mRNA; conditions: cited from earlier work
[2] = Oral tolerability in male and female rats; type: in vivo
[3] = Non-GLP pharmacokinetic (PK) and toxicokinetic (TK) studies; type: in vivo, mice, rats and dogs
[4] = test system: C57BL6/J male mice fed on a Western Diet; experiment: Western Diet-induced liver steatosis in mice, Compound 1 at 2 mg/kg IP for 10 days; type: in vivo
Method: The study was performed with C57BL6/J male mice, placed on a Western Diet for 4 months, and treated for 10 days IP with Compound 1 (2 mg/kg−N=3; *P<0.05)

[5] = Oral PK in dogs (Table 1); type: in vivo; conditions: dog, plasma, canine, 20 mg/kg oral gavage
[6] = Oral PK in mice (Table 1); type: in vivo; conditions: mouse, plasma, C57BL/6 mice, 10 mg/kg oral gavage
Method: Serum chemistry and histochemical analysis is done for both the Western Diet and MCD mouse models. Body weight and Echo-MRI is used to determine lean muscle, fat, and water content of the mice. At the end of the study, the animals are fasted overnight, and blood samples are collected for serum chemistry. A full panel of liver and metabolite biomarkers are assessed. This standard panel includes triglycerides and total cholesterol, triglycerides (TG), ALP, ALT, AST, Creatinine kinase, amylase, lipase, total bilirubin, LDH, as well as calcium, bicarbonate, potassium and sodium. Liver function tests from this panel include Aspartate aminotransferase level (AST), Alanine aminotransferase level […], GGT, Apolipoprotein, Glucose levels, and Alkaline Phosphatase (ALP), Proc-3, GAL-3, YKL-40, CK-18 and Caspase cleaved (MN-65, MN-30). Additionally, insulin, leptin and adiponectin levels are assessed as part of validation of models.
Compound 1 quantification from mouse plasma is performed using LC-MS/MS on ExionLC system equipped with Kinetex XB-C18, 2.1×50 mm (Phenomenex 00B-4496-AN) column coupled with AB Sciex 5500 QTrap instrument (equipped with TurboIonspray ionization source and Analyst software), with Acetonitrile/water/0.1% v/v formic acid as mobile phase. Blood samples collected are centrifuged at 1300 g, 2-8° C., ≥10 minutes and the collected plasma are stored either on ice (less than 1 hour) or at −80° C. until further processing. Predetermined quantities of plasma are vortexed with ice-cold acetonitrile to precipitate the protein content and centrifuged at 1300 g, 2-8° C., ≥10 minutes. Supernatant is taken in a labelled vial and evaporated at 40° C. under a gentle stream of nitrogen. The precipitates are reconstituted in LC-MS grade methanol and centrifuged at 1300 g, 2-8° C., ≥10 minutes. The supernatant is sampled for LC-MS/MS analysis. The concentration of Compound 1 is estimated by standard curve developed from plasma standards spiked with deuterium labeled Compound 1 as internal standard. Deuterium labeled Compound 1 is on-hand. In some embodiments, deuterium labeled Compound 1 has the following structure: […]

[7] = test system: known kinases; experiment: Off-target reactivity with kinases; type: biochemical
[8] = biological target: T1, SCD1 (Homo sapiens, UniProt O00767); experiment: SCD1 enzyme inhibition (conversion of 13C18-stearoyl CoA to 13C18-oleoyl, LC-MS/MS, liver microsomes); type: biochemical
T1 construct: conversion of ^13C18-stearoyl CoA to ^13C18-oleoyl using LC-MS/MS in liver microsomes; from tissue; host or cells: liver microsomes
T1 sequence (O00767 1-359): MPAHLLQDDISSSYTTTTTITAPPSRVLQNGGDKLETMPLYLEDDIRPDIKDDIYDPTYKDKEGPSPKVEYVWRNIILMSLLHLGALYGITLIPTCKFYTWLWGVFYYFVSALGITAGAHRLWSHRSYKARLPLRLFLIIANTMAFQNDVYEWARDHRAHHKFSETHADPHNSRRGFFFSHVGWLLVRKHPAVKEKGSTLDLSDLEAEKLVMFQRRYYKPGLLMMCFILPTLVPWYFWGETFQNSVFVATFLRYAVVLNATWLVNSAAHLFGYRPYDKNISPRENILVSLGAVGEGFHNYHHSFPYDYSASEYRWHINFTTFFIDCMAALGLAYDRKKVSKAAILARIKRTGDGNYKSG

[9] = 14-day repeat oral dosing toxicity/toxicokinetics in dogs; type: in vivo
Method: Healthy beagles (Canis lupis familiaris) were dosed daily (oral gavage) for 14 days, and blood was collected on day 15.
A dosing regimen has been determined for Compound 1. Single dose and 7-day dosing non-GLP toxicity has been performed in rats and dogs and GLP toxicity in dogs 14 days repeat dosing. […] Dose conversion has been done via allometry based on body surface area.
These issues were attributed to atrophy of the Meibomian gland (the specialized sebaceous gland of the eyelid—see, e.g., FIG. 6). […] Mitigation the sequelae of events that occur due to dry eye is achieved by prophylactic administration of lipid eye drops and clinical eye exam every 14 days during a clinical trial.

[10] = Oral PK in rats (Table 1); type: in vivo; conditions: plasma, Sprague Dawley rat, 12.5 mg/kg oral gavage
[11] = meta-analysis, off-label use; cited from earlier work
[12] = Compound 1 alone, Western Diet mice
[13] = 4 hour, read-out: Drug in Plasma, 4 hour
[14] = 8 hour, read-out: Drug in Plasma, 8 hour
[15] = 24 hour, read-out: Drug in Plasma, 24 hour

Compound: CCCCCCCCCCCCCCCCCCCC(=O)N[C@H]1CC[C@@]2(C)[C@@H](C1)C[C@@H](O)[C@@H]1[C@@H]2C[C@H](O)[C@]2(C)[C@@H]([C@H](C)CCC(=O)O)CC[C@@H]12 [Aramchol]
- SCD1 mRNA expression levels [1]: reduces expression of the mRNA for SCD1; also recorded: downregulates SCD1; also recorded: reduces SCD1 mRNA expression levels

Compound: CNC(=O)c1ccnc(NC(=O)N2CCC(Oc3ccccc3Cl)CC2)c1 [Compound 1]
- induction of liver enzymes ([2]; oral 50-300 mg/kg): does not induce liver enzymes
- tolerability ([2]; oral dose range 50-300 mg/kg): well tolerated
- oral bioavailability ([3]; in vivo, po): good oral bioavailability; also recorded: favorable oral bioavailability; also recorded: orally bioavailable
- tolerability ([3]; mice, rats and dogs): well-tolerated
- plasma glucose [4, 12]: does not reduce
- plasma triglycerides [4, 12]: does not reduce
- liver steatosis ([4]; Western Diet 4 months, 2 mg/kg IP 10 days, H&E quantification, N=3, 2 mg/kg): reversal of liver steatosis; also recorded: significant reduction in liver steatohepatitis; also recorded: significantly reduced liver steatosis; also recorded: reduces liver steatosis
- liver function plasma markers / serum chemistry (ALP and BUN levels) ([4]; Western Diet 4 months, 2 mg/kg IP 10 days, N=3, 2 mg/kg): Significant attenuation of liver damage; also recorded: improved liver function plasma markers; also recorded: significantly improves liver function tests
- efficacious dose for NASH ([4]; preliminary data): 2 mg/kg
- AUC(0-t) [5]: 90500 ng·h/mL
- Cmax [5]: 12500 ng/mL
- Tmax [5]: 60 min
- concentration at 4 h [5, 13]: 8310 ng/mL
- concentration at 8 h [5, 14]: 3200 ng/mL
- concentration at 24 h [5, 15]: 212 ng/mL
- AUC(0-t) [6]: 20900 ng·h/mL
- Cmax [6]: 4320 ng/mL
- concentration at 4 h [6, 13]: ~3000 ng/mL
- concentration at 8 h [6, 14]: ~900 ng/mL
- concentration at 24 h [6, 15]: ~25 ng/mL
- off-target reactivity with kinases [7]: does not significantly react off-target with any known kinases
- mode of SCD1 inhibition [8]: inhibits enzymatic activity competitively; also recorded: competitive inhibition; also recorded: reversible
- IC50 ([8]; 13C18-stearoyl CoA to 13C18-oleoyl, LC-MS/MS, liver microsomes, read-out: IC50 for blocking SCD1 enzymatic activity): 1.9 nM
- chemistry, urinalysis, electrocardiograph and hematological parameters vs vehicle control ([9]; 14-day GLP dog study): no substantial differences
- reversibility of eye damage ([9]; 14-day recover dogs (2M/2F)): Most of the damage to eyes was reversible
- WBC ([9]; beagles, daily oral gavage 14 days): no dramatic changes
- liver enzymes or cholesterol levels ([9]; beagles, daily oral gavage 14 days, blood on day 15): no significant changes
- MTD at 14 days ([9]; both sexes, beagle, dog, in vivo, dogs, oral, read-out: maximum tolerated dose (MTD)): 20 mg/kg
- therapeutic window for the treatment of NASH ([9]; dog, in vivo): wide therapeutic window
- ophthalmic observations ([9]; dogs at the maximum tolerated doses): inflammation of the ocular surface with occasional corneal ulceration and low intraocular pressure
- dose limiting toxicity ([9]; dogs, 14-day repeat dosing, high doses): ocular inflammation
- AUC(0-t) [10]: 96400 ng·h/mL
- Cmax [10]: 11600 ng/mL
- Tmax [10]: 30 min
- concentration at 4 h [10, 13]: 8920 ng/mL
- concentration at 8 h [10, 14]: 4130 ng/mL
- concentration at 24 h [10, 15]: 437 ng/mL

Compound: CCc1ccc(CCOc2ccc(CC3SC(=O)NC3=O)cc2)nc1 (stereo not drawn) [pioglitazone]
- efficacy in human NAFLD [11]: efficacious in human NAFLD
